We go through 18 molecules from ChEMBL document CHEMBL1131758, “5-fluoro-2-methyl-N-[5-(5H-pyrrolo[2,1-c][1,4]benzodiazepine-10(11H)-yl carbonyl)-2-pyridinyl]benzamide (CL-385004) and analogs as orally active arginine vasopressin receptor antagonists” (Bioorg Med Chem Lett, 1999).

Usually IC50 stands for the concentration that inhibits the measured activity by half. Read a high IC50 as weaker potency. For orientation: inhibition means how much of the control response was suppressed.

Structures are written as SMILES.

For series [1], the target named is T1, Vasopressin V1a receptor (Rattus norvegicus, UniProt P30560). Put plainly: Displacement of (Phe-3,4,5 [3H]-) AVP from isolated rat hepatic V1a receptor.
Series [2] has as its system Rattus norvegicus. Briefly: Amount of urine output was measured in rat at a dose of 10 mg/kg/po. In kind it is ADME, organism-based. The conditions noted are these: in vivo.
Series [3] addresses T2, Vasopressin V2 receptor (Rattus norvegicus, UniProt Q00788). Put plainly: Displacement of P[3H]-AVP from isolated rat kidney medullary V2 receptor.
In series [4] the target is Vasopressin V2 receptor (Rattus norvegicus) (UniProt Q00788). Briefly: In vitro inhibition of (P[3H]-AVP binding towards isolated rat kidney medullary V2 receptor at a dose of 10 uM.
The target of series [5] is Vasopressin V1a receptor (Rattus norvegicus) (UniProt P30560). Put plainly: In vitro inhibition of (Phe-3,4,5 [3H]-) AVP binding towards isolated rat hepatic V1a receptor at a dose of 10 uM.
Series [6] concerns the target T1, Vasopressin V1a receptor. Put plainly: In vitro inhibition of (Phe-3,4,5 [3H]-) AVP binding towards isolated rat hepatic Vasopressin V1a receptor.
Series [7] addresses T2, Vasopressin V2 receptor. Put plainly: In vitro inhibition of (P[3H]-AVP binding towards isolated rat kidney medullary Vasopre ssin V2 receptor.
Series [8] concerns Rattus norvegicus. Briefly: Amount of urine output was measured in rat at a dose of 1 mg/kg/po. In kind it is ADME, organism-based. The following applies: in vivo.

T1 sequence (P30560 whole entry): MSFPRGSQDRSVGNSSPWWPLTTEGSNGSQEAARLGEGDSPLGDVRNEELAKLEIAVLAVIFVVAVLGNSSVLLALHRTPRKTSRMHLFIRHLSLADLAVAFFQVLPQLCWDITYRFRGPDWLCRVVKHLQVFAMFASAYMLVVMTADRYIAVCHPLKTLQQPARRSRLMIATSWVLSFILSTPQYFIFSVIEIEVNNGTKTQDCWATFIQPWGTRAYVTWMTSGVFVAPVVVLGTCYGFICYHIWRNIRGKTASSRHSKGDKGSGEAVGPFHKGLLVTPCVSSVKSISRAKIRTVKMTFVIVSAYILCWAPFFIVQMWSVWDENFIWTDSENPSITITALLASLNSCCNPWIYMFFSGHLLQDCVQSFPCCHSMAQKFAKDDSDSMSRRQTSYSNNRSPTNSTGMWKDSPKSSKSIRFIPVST
Vasopressin V1a receptor (Rattus norvegicus), sequence (P30560 whole entry, looked up): as the sequence (P30560 whole entry) above
T2 sequence (Q00788 whole entry): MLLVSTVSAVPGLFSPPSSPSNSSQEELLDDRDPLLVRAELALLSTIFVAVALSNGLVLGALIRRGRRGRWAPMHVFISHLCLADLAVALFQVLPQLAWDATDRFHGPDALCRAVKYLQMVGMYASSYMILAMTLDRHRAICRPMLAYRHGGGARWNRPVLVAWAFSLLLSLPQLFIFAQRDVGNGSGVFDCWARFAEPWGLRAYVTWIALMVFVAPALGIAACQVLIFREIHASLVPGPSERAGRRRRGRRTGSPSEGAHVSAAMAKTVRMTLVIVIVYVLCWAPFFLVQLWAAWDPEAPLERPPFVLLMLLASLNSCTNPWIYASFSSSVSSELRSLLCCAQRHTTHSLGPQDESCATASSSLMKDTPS
Vasopressin V2 receptor (Rattus norvegicus), sequence (Q00788 whole entry): as above

Turning to `O=C(Nc1ccc(C(=O)N2Cc3cccn3Cc3ccccc32)cn1)c1c(F)cccc1Cl`, the concentration for half-maximal inhibition (IC50) on Vasopressin V1a receptor [1] was found to be 40 nM; at Vasopressin V2 receptor [3], 4 nM. In the series on Rattus norvegicus [2], this molecule returned a Urine volume of 15.8 ml 4hr-1.

In turn, `O=C(Nc1ccc(C(=O)N2Cc3cccn3Cc3ccccc32)cn1)c1ccccc1Cl` registered a Urine volume in the series on Rattus norvegicus [2] of 4 ml 4hr-1.

With `O=C(Nc1ccc(C(=O)N2Cc3cccn3Cc3ccccc32)cn1)c1ccc(F)cc1F`, the inhibition amounted to 58% in series [4] and 37% in series [5].

`Cc1ccccc1C(=O)Nc1ccc(C(=O)N2Cc3cccn3Cc3ccccc32)cn1`: the IC50 at Vasopressin V1a receptor [6] is 21 nM; on Vasopressin V2 receptor [7], 3 nM. Also, in the series with Rattus norvegicus [2], the Urine volume came out at 5.3 ml 4hr-1.

At Vasopressin V1a receptor [1], `Cc1c(F)cccc1C(=O)Nc1ccc(C(=O)N2Cc3cccn3Cc3ccccc32)cn1` showed an IC50 of 9 nM. This molecule had a Urine volume in the series on Rattus norvegicus [2] of 34 ml 4hr-1.

Turning to `O=C(Nc1ccc(C(=O)N2Cc3cccn3Cc3ccccc32)cn1)c1ccccc1[N+](=O)[O-]`, the IC50 at Vasopressin V1a receptor [1] was determined as 920 nM; at Vasopressin V2 receptor [3], 160 nM.

For `Cc1ccc(F)cc1C(=O)Nc1ccc(C(=O)N2Cc3ccc(CN(C)C)n3Cc3ccccc32)cn1`, the IC50 on Vasopressin V1a receptor [1] turned out to be 99 nM; on Vasopressin V2 receptor [3], 33 nM. The molecule also displayed a Urine volume in the series with Rattus norvegicus [2] of 12.5 ml 4hr-1.

As to `O=C(Nc1ccc(C(=O)N2Cc3cccn3Cc3ccccc32)cn1)c1ccccc1-c1ccccc1`, the half-maximal inhibitory concentration (IC50) at Vasopressin V1a receptor [1] turned out to be 30 nM; on Vasopressin V2 receptor [3], 8.3 nM. In the series with Rattus norvegicus [2], the Urine volume is given as 16.5 ml 4hr-1.

As to `O=C(Nc1ccc(C(=O)N2Cc3cccn3Cc3ccccc32)cn1)c1cc(Br)ccc1Cl`, the 50% inhibitory concentration (IC50) was determined as 82 nM on Vasopressin V1a receptor [1] and 7.3 nM on Vasopressin V2 receptor [3]. The molecule also came in with a Urine volume in the series with Rattus norvegicus [2] of 16.5 ml 4hr-1.

The molecule `Cc1ccc(F)cc1C(=O)Nc1ccc(C(=O)N2Cc3cccn3Cc3ccccc32)cn1` yielded a Urine volume in the series on Rattus norvegicus [8] of 20 ml 4hr-1.

With `O=C(Nc1ccc(C(=O)N2Cc3cccn3Cc3ccccc32)cn1)c1cc(-c2ccccn2)ccc1Cl`, the 50% inhibitory concentration (IC50) on Vasopressin V1a receptor [1] was determined as 260 nM; at Vasopressin V2 receptor [3], 480 nM.

For `O=C(Nc1ccc(C(=O)N2Cc3cccn3Cc3ccccc32)cn1)c1cc(Cl)ccc1Cl`, the IC50 at Vasopressin V1a receptor [1] amounted to 100 nM; at Vasopressin V2 receptor [3], 4.3 nM. The Urine volume with Rattus norvegicus [2] worked out at 19.3 ml 4hr-1.

For the molecule `O=C(Nc1ccc(C(=O)N2Cc3cccn3Cc3ccccc32)cn1)c1cc(F)ccc1F`, the 50% inhibitory concentration (IC50) on Vasopressin V1a receptor [1] is 310 nM; on Vasopressin V2 receptor [3], 240 nM. In the series with Rattus norvegicus [2], this molecule yielded a Urine volume of 11.8 ml 4hr-1.

On to `Cc1ccc(F)cc1C(=O)Nc1ccc(C(=O)N2Cc3cccn3Cc3ccccc32)c(Cl)c1` [LIXIVAPTAN], for which the IC50 at Vasopressin V1a receptor [1] stood at 82 nM; on Vasopressin V2 receptor [3], 0.5 nM. In the series with Rattus norvegicus [2], this molecule came in with a Urine volume of 35 ml 4hr-1.

In the case of `O=C(Nc1ccc(C(=O)N2Cc3cccn3Cc3ccccc32)cn1)c1ccc(F)cc1Cl`, in the series on Rattus norvegicus [2], the Urine volume came out at 30.5 ml 4hr-1.

`Nc1ccccc1C(=O)Nc1ccc(C(=O)N2Cc3cccn3Cc3ccccc32)cn1` had an inhibition in series [5] of 29%. This molecule registered a half-maximal inhibitory concentration (IC50) at Vasopressin V2 receptor [3] of 210 nM.

On to `Cc1ccc(F)cc1C(=O)N(CCCN(C)C)c1ccc(C(=O)N2Cc3cccn3Cc3ccccc32)cn1`, for which the inhibition in series [5] was 68%. This molecule also yielded a concentration for half-maximal inhibition (IC50) on Vasopressin V2 receptor [3] of 290 nM.

Regarding `COc1cc(C(=O)Nc2ccc(C(=O)N3Cc4cccn4Cc4ccccc43)cn2)cc(OC)c1OC`, the inhibition was 41% in series [4] and 51% in series [5].
